Tests used:
[1] = Plasma glutamate and glutamine levels after oral glutamine; format: in vivo, Sprague Dawley rats; details: Gln by gavage, vs saline (FIG. 4)
Description: (§1) Male adult Sprague Dawley (SD) rats (˜250 g) (n=9) were reared under and exposed to a 12 hr light/dark cycle, and provided with food (16% protein) and water ad libitum. Gln (0.5 grams per kilogram (g/Kg) or 1.0 g/Kg, in saline) or saline were administered by gavage. Rats were sacrificed by decapitation 2.5 hours (h) later.
(§2) Data are presented as mean+/−S.E.M. ANOVA or t-test was used to determine differences between groups (significance level, p<0.05).

[2] = tested on: brain (striatal) GABA, glutamine and glutamate levels; assay: Striatal tissue neurotransmitter contents after oral glutamine (HPLC-EC); format: in vivo, Sprague Dawley rats; details: Gln by gavage, striata 2.5 hrs after dosing, vs saline (FIG. 3)
Description: as §1
To measure GABA contents, brains were quickly dissected on a chilled dissection board. Striata were homogenized with HClO4 and neutralized with 0.1 M Borate buffer (1:10). Data were normalized by the wet weights of the samples.
(§3) GABA was measured by HPLC, using an ODS column and OPA-sulfite derivation with electrochemical detection. OPA-sulfite HPLC-EC derivation was used to measure GABA levels in both brain tissue and microdialysis samples. The samples were derivatized at 4° C. to allow usage of an auto-sampler (Alltech 580). The detector used was an ESA Coulochem® II 5100A with an ESA microdialysis cell.
as §2

[3] = tested on: GABA release in rat striatum; assay: Microdialysis of spontaneous and NMDA-evoked GABA release in rat striatum; format: in vivo, rats; details: striatal microdialysis, mean±S.E.M.
Description: as §3, §2
Microdialysis was carried out in freely moving rats. Rats were anesthetized, and CMA/11 guide cannulas were permanently implanted into right striatum (AP=+0.5, ML=−3.0 from Bregma, DV=−3.3 mm from Dura) 1 week prior to microdialysis sampling. Dialysis collection was performed using a CMA/11 probe (4 mm), perfused with artificial cerebrospinal fluid (aCSF) at […] and collected at 20 min intervals.
GABAergic neurons were stimulated by NMDA (500 μM) in aCSF, 1 hr after Gln administration by gavage.

NC(=O)CC[C@H](N)C(=O)O [Gln, glutamine]
plasma Gln levels [1]: increased
plasma Glu levels [1]: not
striatal Gln levels [2]: significantly increased
striatal Glu levels [2]: slightly decreased
Maximal spontaneous GABA release ([3]; Gln by gavage, freely moving rats, saline 111±7%, p<0.05 (FIG. 6)): 141±12%
NMDA-evoked GABA release ([3]; NMDA 500 μM in aCSF 1 hr after Gln by gavage, saline 177±40% (FIG. 7)): 252±37%

From patent US20100016207A1, “Methods and Compositions for Raising Levels and Release of Gamma Aminobutyric Acid” (priority 2005, published 2010)
